Test system: mutSOD1 mice
Test: Survival of mutSOD1 mice (mouse model of ALS)
Assay type: in vivo
Conditions: FIG. 10B, polyP neutralizing cationic polyamine
Text: Hemizygous transgenic mice carrying mutant human SOD1^G93A (high copy number; B6SJL; Cat. #002726), wild-type human SOD1^WT (B6SJL; Cat. #002297) and TARDBP^A315T (C57BL/6J; Cat. #010700) transgenes were obtained from Jackson Laboratories (Bar Harbor, Maine, USA). Hemizygous transgenic mice (background B6SJLF/J) carrying C9ORF72 hexanucleotide repeats (˜500) in intron were generated by Robert Brown (Peters et al., 2015). All mice were maintained and bred at the animal facility of Universidad Andres Bello. The presence of the human SOD1transgene, the human TARDBP transgene and the human C9ORF72 transgene were validated by polymerase chain reaction as previously described. Transgenic males were crossed with WT females (B6SJL or C57BL/6J) from the corresponding background; these non-transgenic littermates (NTg) were used as internal controls for all experiments. The SOD1^G93A (mutSOD1) mice, but not the hSOD1WT (wtSOD1) mice, develop signs of neuromuscular deficits (tremor of the legs and loss of extension reflex of the hind paws) starting at 3 months of age and have an average lifespan of 133-147 days. […]
In this Example, polyP neutralizing molecules including a dendrimer (e.g., G3-PAMAM-NH2) and a cationic polyamine (e.g., spermidine) were evaluated as potential therapies for neurological disorders using a mouse model of ALS. […]

Q: How did the “survival of mutSOD1 mice (in words)” value turn out when NCCCCNCCCN [spermidine] was run?
A: prolonged survival

— US20250327046A1, “ROLE OF POLYPHOSPHATES IN NEUROLOGICAL DISORDERS” (UNIVERSITY OF MASSACHUSETTS, priority 2021, published 2025)
